Source: patent publication US20230172946A1, “In-situ Gel Forming Ophthalmic Formulations Containing Difluprednate” (IVIEW Therapeutics, Inc., priority 2019, published 2023)

Experiments:
[1] = Solubility of difluprednate with different surfactants/solubilizers; type: physicochemical
Procedure: To improve the solubility of difluprednate, different surfactants/solubilizers were investigated to discover suitable solubilizers. Different surfactants/solubilizers such as Poloxamer 188, Poloxamer 407, polysorbate 80, PEG 40 Caster Oil, PEG 60 Caster Oil, PEG 40 Hydrogenated Castor Oil, Polyoxyl 40 Stearate and Soluplus was dissolved in water with different concentrations. Difluprednate was added into the surfactant solutions with the final difluprednate concentration of 0.05%. The solubility of difluprednate was measured. […] Soluplus is a polyethylene glycol, polyvinyl acetate and polyvinylcaprolactame-based graft copolymer (PVAc-PVCap-PEG). It can form nanomicelles in water or other aqueous solutions, and solubilize poorly soluble difluprednate.

[2] = cited from earlier work

solubility of difluprednate ([1]; 5% Polyoxyethylene Castor Oil (RL-40)): > 98%
Solubility % ([1]; Benzyl Benzoate 2% in water, difluprednate 0.05%): 0.37%
Solubility % ([1]; Glyceryl Tricaprylate 0.2% in water, difluprednate 0.05%): 0.84%
Solubility % ([1]; Hypromellose 0.5% in water, difluprednate 0.05%): 17.6%
Solubility % ([1]; Poloxamer188 0.1% in water, difluprednate 0.05%): 3.59%
Solubility % ([1]; Poloxamer 407 0.2% in water, difluprednate 0.05%): 2.20%
Solubility % ([1]; Polyoxyethylene (23) Cetyl Ether 0.2% in water, difluprednate 0.05%): 7.87%
Solubility % ([1]; Polyoxyethylene (23) Cetyl Ether 0.45% in water, difluprednate 0.05%): 15.41%
Solubility % ([1]; Polyoxyethylene (23) Cetyl Ether 1.0% in water, difluprednate 0.05%): 33.70%
Solubility % ([1]; Polyoxyethylene (40) Monostearate 0.5% in water, difluprednate 0.05%): 42.0%
Solubility % ([1]; Polyoxyethylene (40) Stearate 7.0% in water, difluprednate 0.05%): 5.1%
Solubility % ([1]; Polyoxyethylene (60) Castor Oil 5.0% in water, difluprednate 0.05%): 95.3%
solubility of difluprednate ([1]; Polyoxyethylene (60) Castor Oil, at least 4 or 5% needed): > 95%
Solubility % ([1]; Polyoxyethylene Castor Oil (EL) 5.0% in water, difluprednate 0.05%): 93.5%
Solubility % ([1]; Polyoxyethylene Castor Oil (EL-35) 5.0% in water, difluprednate 0.05% (second entry, r27)): 96.3%
solubility of difluprednate ([1]; Polyoxyethylene Castor Oil (EL-35), at least 4 or 5% needed): > 95%
Solubility % ([1]; Polyoxyethylene Castor Oil (EL-40) 5.0% in water, difluprednate 0.05%): >98.0%
Solubility % ([1]; Polyoxyethylene Hydrogenated Castor Oil (RH-40) 0.53% in water, difluprednate 0.05%): 9.7%
Solubility % ([1]; Polyoxyethylene Hydrogenated Castor Oil (RH-40) 1.0% in water, difluprednate 0.05%): 18.6%
Solubility % ([1]; Polyoxyethylene Hydrogenated Castor Oil (RH-40) 2.0% in water, difluprednate 0.05%): 50.0%
Solubility % ([1]; Polyoxyethylene Hydrogenated Castor Oil (RH-40) 3.0% in water, difluprednate 0.05%): 73.1%
Solubility % ([1]; Polyoxyethylene Hydrogenated Castor Oil (RH-40) 4.0% in water, difluprednate 0.05%): 88.1%
Solubility % ([1]; Polyoxyethylene Hydrogenated Castor Oil (RH-40) 5.0% in water, difluprednate 0.05%): 99.5%
Solubility % ([1]; Polyoxyethylene castor oil (EL-35) 5.0% in water, difluprednate 0.05% (first entry, r11)): 82.9%
Solubility % ([1]; Polyoxyl 20 Cetostearyl Ether 1.0% in water, difluprednate 0.05%): 37.2%
Solubility % ([1]; Polyoxyl 20 Cetostearyl Ether 2.0% in water, difluprednate 0.05%): 74.7%
Solubility % ([1]; Polyoxyl 20 Cetostearyl Ether 3.0% in water, difluprednate 0.05%): 79.9%
Solubility % ([1]; Polyoxyl 20 Cetostearyl Ether 4.0% in water, difluprednate 0.05%): 96.9%
Solubility % ([1]; Polyoxyl 20 Cetostearyl Ether 5.0% in water, difluprednate 0.05%): 96.9%
Solubility % ([1]; Polysorbate 80 0.05% in water, difluprednate 0.05%): 1.75%
Solubility % ([1]; Soluplus 0.9% in water, difluprednate 0.05%): 101.9%
Solubility % ([1]; Soluplus 1.2% in water, difluprednate 0.05%): 102.1%
Solubility % ([1]; Soluplus 1.5% in water, difluprednate 0.05%): 102.1%
Solubility % ([1]; Sucrose Fatty Acid Ester 0.2% in water, difluprednate 0.05%): 2.01%
Solubility % ([1]; Sucrose Fatty Acid Ester 1.0% in water, difluprednate 0.05%): 8.36%
Solubility % ([1]; Vitamin E Polyethylene Glycol Succinate 0.5% in water, difluprednate 0.05%): 25.3%
SMILES: CCCC(=O)O[C@]1(C(=O)COC(C)=O)CC[C@H]2[C@@H]3C[C@H](F)C4=CC(=O)C=C[C@]4(C)[C@@]3(F)[C@@H](O)C[C@@]21C [Difluprednate]
solubility in water [2]: practically insoluble in water
